Results taken from patent US10208021B2, “Substituted tetrahydroisoquinoline compounds as factor XIa inhibitors” (BRISTOL-MYERS SQUIBB COMPANY, priority 2011, dated 2019).
Structures can show the parent of a compound that is named as a salt.

Molecular target: purified human Factor XIa (Homo sapiens (Human), UniProt P03951)
Experiment: Factor XIa chromogenic substrate (S-2366) inhibition assay
Assay type: biochemical
How it was run: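 Ki derived from reaction velocities measured in the presence of inhibitor. Purified protease hydrolysed the chromogenic substrate; rate of absorbance change was followed over 20-180 minutes, depending on the protease.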

[1] = substrate S-2366, activity ranges, Table A

Sequence of purified human Factor XIa (P03951 388-625): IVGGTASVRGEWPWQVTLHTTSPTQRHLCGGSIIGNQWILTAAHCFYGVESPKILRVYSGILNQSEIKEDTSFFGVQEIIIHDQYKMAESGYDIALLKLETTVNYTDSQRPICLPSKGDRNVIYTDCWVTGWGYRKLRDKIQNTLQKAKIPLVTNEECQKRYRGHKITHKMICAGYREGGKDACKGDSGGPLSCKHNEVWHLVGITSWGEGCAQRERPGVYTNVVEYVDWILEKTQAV
Sequence of purified human Factor XIa (P03951 19-387 partner): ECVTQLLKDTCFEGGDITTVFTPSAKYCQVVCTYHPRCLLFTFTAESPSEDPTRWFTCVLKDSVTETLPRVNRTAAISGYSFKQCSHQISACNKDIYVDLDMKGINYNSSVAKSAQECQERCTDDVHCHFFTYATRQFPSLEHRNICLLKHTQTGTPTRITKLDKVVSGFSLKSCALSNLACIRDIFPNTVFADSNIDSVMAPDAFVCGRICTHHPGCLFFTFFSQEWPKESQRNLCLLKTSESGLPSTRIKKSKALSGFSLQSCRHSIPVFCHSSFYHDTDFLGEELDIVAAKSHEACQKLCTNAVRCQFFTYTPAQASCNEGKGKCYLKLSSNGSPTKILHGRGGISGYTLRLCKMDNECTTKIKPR

Row | SMILES | Ki [1] | Ki (substrate S-2366, Table 1)
1 | NC(=O)c1ccc(NC(=O)C2c3cccc(N4CCNCC4)c3CCN2C(=O)/C=C/c2cc(Cl)c(F)cc2-n2cnnn2)cc1 (stereo not shown) [Example 66, (E)-N-(4-carbamoylphenyl)-2-(3-(5-chloro-4-fluoro-2-(1H-tetrazol-1-yl)phenyl)acryloyl)-5-(piperazin-1-yl)-1,2,3,4-tetrahydroisoquinoline-1-carboxamide, bis-TFA Salt] | 5 to 10 nM | 
2 | O=C(NC1CC1)c1ccc(NC(=O)C2c3cccc(N4CCNCC4)c3CCN2C(=O)/C=C/c2cc(Cl)c(F)cc2-n2cnnn2)cc1 (racemic) [Example 67] | 100 to 500 nM | 
3 | COC(=O)CNC(=O)c1ccc(NC(=O)C2c3cccc(N4CCNCC4)c3CCN2C(=O)/C=C/c2cc(Cl)c(F)cc2-n2cnnn2)cc1 (racemic) [Example 74] | 100 to 500 nM | 
4 | O=C(O)c1ccc(NC(=O)C2c3cccc(N4CCC(N5CCCC5=O)CC4)c3CCN2C(=O)C=Cc2c(-n3cnnn3)ccc(Cl)c2F)cc1 (stereo not shown) [Example 118] | 5 to 10 nM | 
5 | O=C(Nc1ccc(F)cc1)C1c2cccc(N3CCNCC3)c2CCN1C(=O)/C=C/c1c(-n2cnnn2)ccc(Cl)c1F (stereo not shown) [Example 5] | 5 to 10 nM | 
6 | O=C(O)c1ccc(NC(=O)C2c3cccc(N4CCC(N5CCCC5=O)CC4)c3CCN2C(=O)C=Cc2c(-n3cnnn3)ccc(Cl)c2F)cc1 (stereo not shown) [Example 119] |  | < 5 nM
7 | CN(C)C1CCN(c2cccc3c2CCN(C(=O)/C=C/c2c(-n4cnnn4)ccc(Cl)c2F)C3C(=O)Nc2ccc(C(=O)OC(C)(C)C)cc2)CC1 (racemic) [Example 91] | 5 to 10 nM | 
8 | N#CC1CCN(c2cccc3c2CCN(C(=O)/C=C/c2c(-n4cnnn4)ccc(Cl)c2F)C3C(=O)Nc2ccc(C(=O)O)cc2)CC1 (racemic) [Example 147] | < 5 nM | 
9 | CCCCOC(=O)c1ccc(NC(=O)C2c3cccc(N4CCC(N5CCCC5)CC4)c3CCN2C(=O)C=Cc2c(-n3cnnn3)ccc(Cl)c2F)cc1 (stereo not shown) [Example 114] | < 5 nM | 
10 | CCOC(=O)c1ccc(NC(=O)[C@H]2c3cccc(N4CCC(N(C)C)CC4)c3CCN2C(=O)/C=C/c2c(-n3cnnn3)ccc(Cl)c2F)cc1 [Example 128] |  | 133 nM
11 | CC(=O)OC1CCN(c2cccc3c2CCN(C(=O)/C=C/c2c(-n4cnnn4)ccc(Cl)c2F)C3C(=O)Nc2ccc(C(=O)O)cc2)CC1 (racemic) [Example 137] | < 5 nM | 
12 | O=C(O)c1ccc(NC(=O)C2c3cccc(N4CCN(C(=O)OCc5ccccc5)CC4=O)c3CCN2C(=O)/C=C/c2c(-n3cnnn3)ccc(Cl)c2F)cc1 (racemic) [Example 52] |  | < 5 nM
13 | O=C(O)c1ccc(NC(=O)[C@@H]2c3cccc(N4CCC(N5CCOCC5)CC4)c3CCN2C(=O)/C=C/c2c(-n3cnnn3)ccc(Cl)c2F)cc1 [Example 139] | < 5 nM | 
14 | CC(=O)NCCNC(=O)c1ccc(NC(=O)C2c3cccc(N4CCNCC4)c3CCN2C(=O)/C=C/c2cc(Cl)c(F)cc2-n2cnnn2)cc1 (racemic) [Example 72] | 500 to 5000 nM | 
15 | CC(C)(C)OC(=O)c1ccc(NC(=O)[C@@H]2c3cccc(N4CCOCC4=O)c3CCN2C(=O)/C=C/c2c(-n3cnnn3)ccc(Cl)c2F)cc1 [Example 50] | 100 to 500 nM | 
16 | CCOC(=O)CCNC(=O)N1CCN(c2cccc3c2CCN(C(=O)/C=C/c2cc(Cl)ccc2-n2cnnn2)C3C(=O)Nc2ccc(NC(=O)OC)cc2)CC1 (stereo not shown) [Example 23] | 5 to 10 nM | 
17 | O=C(O)c1ccc(NC(=O)C2c3cccc(N4CCC(C(=O)N5CCCC5)CC4)c3CCN2C(=O)/C=C/c2c(-n3cnnn3)ccc(Cl)c2F)cc1 (racemic) [Example 131] |  | < 5 nM
18 | CC(C)(C)OC(=O)c1ccc(NC(=O)C2c3cccc(N4CCOCC4)c3CCN2C(=O)/C=C/c2c(-n3cnnn3)ccc(Cl)c2F)cc1 (racemic) [Example 59] | 5 to 10 nM | 
19 | CN1CCN(c2cccc3c2CCN(C(=O)/C=C/c2c(-n4cnnn4)ccc(Cl)c2F)C3C(=O)Nc2ccc(C(=O)OC(C)(C)C)cc2)C(=O)C1 (stereo not shown) [Example 57, (E)-tert-butyl 4-(2-(3-(3-chloro-2-fluoro-6-(1H-tetrazol-1-yl)phenyl)acryloyl)-5-(4-methyl-2-oxopiperazin-1-yl)-1,2,3,4-tetrahydroisoquinoline-1-carboxamido)benzoate] | 5 to 10 nM | 
20 | CCCCOC(=O)c1ccc(NC(=O)C2c3cccc(N4CCC(N5CCCC5)CC4)c3CCN2C(=O)/C=C/c2c(-n3cnnn3)ccc(Cl)c2F)cc1 (racemic) [Example 105] | < 5 nM | 
21 | COC(=O)N1CCN(c2cccc3c2CCN(C(=O)/C=C/c2c(-n4cnnn4)ccc(Cl)c2F)C3C(=O)Nc2ccc(C#N)cc2)CC1 (stereo not shown) [Example 26] | 5 to 10 nM | 
22 | Cn1ncc2ccc(NC(=O)C3c4cccc(N5CCC(N6CCCC6)CC5)c4CCN3C(=O)/C=C/c3c(-n4cnnn4)ccc(Cl)c3F)cc21 (racemic) [Example 120] | < 5 nM | 
23 | COC1CCN(c2cccc3c2CCN(C(=O)/C=C/c2c(-n4cnnn4)ccc(Cl)c2F)[C@@H]3C(=O)Nc2ccc(C(=O)O)cc2)CC1 [Example 151] | < 5 nM | 
24 | CC(C)(C)OC(=O)c1ccc(NC(=O)C2c3cccc(N4CCN(C(=O)OC(C)(C)C)CC4=O)c3CCN2C(=O)/C=C/c2c(-n3cnnn3)ccc(Cl)c2F)cc1 (racemic) [Example 55] | 100 to 500 nM | 

Other lines, results leading:

Row | Ki [1] | Ki (substrate S-2366, Table 1) | SMILES
25 |  | 20.6 nM | CCOC(=O)c1ccc(NC(=O)C2c3cccc(N4CCCCC4=O)c3CCN2C(=O)/C=C/c2c(-n3cnnn3)ccc(Cl)c2F)cc1 (racemic) [compound 43]
26 | < 5 nM |  | CN(C)C1CCN(c2cccc3c2CCN(C(=O)/C=C/c2c(C(F)(F)F)ccc(Cl)c2F)C3C(=O)Nc2ccc(C(=O)O)cc2)CC1 (racemic) [Example 223]
27 |  | 1050 nM | CCOC(=O)c1ccc(NC(=O)[C@H]2c3cccc(N4CCN(C)CC4=O)c3CCN2C(=O)/C=C/c2c(-n3cnnn3)ccc(Cl)c2F)cc1 [Example 191, (R,E)-Ethyl 4-(2-(3-(3-chloro-2-fluoro-6-(1H-tetrazol-1-yl)phenyl)acryloyl)-5-(4-methyl-2-oxopiperazin-1-yl)-1,2,3,4-tetrahydroisoquinoline-1-carboxamido)benzoate, TFA Salt]
28 | 5 to 10 nM |  | CCOC(=O)c1ccc(NC(=O)C2c3cccc(N4CC5CN(C)CC5C4)c3CCN2C(=O)C=Cc2c(-n3cnnn3)ccc(Cl)c2F)cc1 (stereo not shown) [Example 253]
29 | 100 to 500 nM |  | CC(C)(C)OC(=O)CCNC(=O)C1c2cccc(N3CCC(N4CCCC4)CC3)c2CCN1C(=O)/C=C/c1c(-n2cnnn2)ccc(Cl)c1F (racemic) [Example 230]
30 | 5 to 10 nM |  | CCOC(=O)c1ccc(NC(=O)C2c3cccc(N4CCC(N5CCCC5)CC4)c3CCN2C(=O)/C=C/c2c(C#N)ccc(Cl)c2F)cc1 (racemic) [Example 165]
31 | 5 to 10 nM |  | CC(=O)c1ccc(Cl)c(F)c1/C=C/C(=O)N1CCc2c(cccc2N2CCCCC2=O)[C@@H]1C(=O)Nc1ccc(C(=O)O)cc1 [compound 39]
32 | < 5 nM |  | O=C(NC1CCCCC1)C1c2cccc(N3CCC(N4CCCC4)CC3)c2CCN1C(=O)/C=C/c1c(-n2cnnn2)ccc(Cl)c1F (racemic) [Example 239]
33 | 5 to 10 nM |  | CCOC(=O)c1ccc(NC(=O)[C@H]2c3cccc(N4CCCCC4=O)c3CCN2C(=O)/C=C/c2c(-n3cnnn3)ccc(Cl)c2F)cc1 [compound 44]
34 | < 5 nM |  | CN1CCCN(c2cccc3c2CCN(C(=O)/C=C/c2c(-n4cnnn4)ccc(Cl)c2F)C3C(=O)Nc2ccc(C(=O)O)cc2)CC1 (racemic) [Example 262]
35 | 5 to 10 nM |  | CCOC(=O)c1ccc(NC(=O)C2c3cccc(N4CCC(N5CCCC5)CC4)c3CCN2C(=O)C=Cc2c(C(F)(F)F)ccc(Cl)c2F)cc1 (stereo not shown) [Example 177]
36 | < 5 nM |  | CC(=O)c1ccc(Cl)c(F)c1C=CC(=O)N1CCc2c(cccc2N2CCC(OCCN(C)C)CC2)C1C(=O)Nc1ccc(C(=O)O)cc1 (stereo not shown) [Example 267]
37 | < 5 nM |  | O=C(O)c1ccc(NC(=O)C2c3cccc(N4CCC(N5CCCC5)CC4)c3CCN2C(=O)/C=C/c2cc(Cl)ccc2C(F)F)cc1 (racemic) [Example 158]
38 | 100 to 500 nM |  | O=C(O)c1ccc(NC(=O)C2c3cccc(N4CCC(N5CCCC5)CC4)c3CCN2C(=O)C=Cc2c(C(F)(F)F)ccc(Cl)c2F)cc1 (stereo not shown) [Example 179]
39 | < 5 nM |  | CN(C)CCNC(=O)N1CCCN(c2cccc3c2CCN(C(=O)/C=C/c2c(-n4cnnn4)ccc(Cl)c2F)C3C(=O)Nc2ccc(C(=O)O)cc2)CC1 (racemic) [Example 261]
40 | 5 to 10 nM |  | CCOC(=O)c1ccc(NC(=O)C2c3cccc(N4CCOCC4)c3CCN2C(=O)C=Cc2c(-n3cnnn3)ccc(Cl)c2F)cc1 (stereo not shown) [Example 185]
41 | < 5 nM |  | O=C(O)c1ccc(NC(=O)C2c3cccc(N4CCC5(CC4)OCCO5)c3CCN2C(=O)/C=C/c2c(-n3cnnn3)ccc(Cl)c2F)cc1F (racemic) [Example 255]
42 | < 5 nM |  | CC(=O)c1ccc(Cl)c(F)c1/C=C/C(=O)N1CCc2c(cccc2N2CCC(N3CCOCC3)CC2)C1C(=O)Nc1ccc(C(=O)O)cc1 (racemic) [Example 220]
43 | 5 to 10 nM |  | O=C(O)c1ccc(NC(=O)[C@@H]2c3cccc(N4CCCCC4=O)c3CCN2C(=O)/C=C/c2cc(Cl)c(F)cc2-n2cnnn2)cc1 [compound 42]
44 | 5 to 10 nM |  | CC(=O)c1ccc(Cl)c(F)c1C=CC(=O)N1CCc2c(cccc2N2CCC(N3CCCC3)CC2)C1C(=O)Nc1ccc(C(=O)OCCn2cncn2)cc1 (stereo not shown) [Example 173]
45 | < 5 nM |  | CC(=O)c1ccc(Cl)c(F)c1/C=C/C(=O)N1CCc2c(cccc2N2CCS(=O)(=O)CC2)[C@H]1C(=O)Nc1ccc(C(=O)O)cc1 [Example 217]
46 | 5 to 10 nM |  | CCOC(=O)c1ccc(NC(=O)[C@@H]2c3cccc(N4CCN(C)CC4)c3CC(C)(C)N2C(=O)/C=C/c2c(-n3cnnn3)ccc(Cl)c2F)cc1 [Example 203]
47 | < 5 nM |  | CC(=O)c1ccc(Cl)c(F)c1C=CC(=O)N1CCc2c(cccc2N2CCC3(CCN(C)C3=O)CC2)C1C(=O)Nc1ccc(C(=O)O)cc1 (stereo not shown) [Example 222]
48 | < 5 nM |  | O=C(O)c1ccc(NC(=O)C2c3cccc(N4CCC(N5CCCC5)CC4)c3CCN2C(=O)C=Cc2c(C(F)(F)F)ccc(Cl)c2F)cc1 (stereo not shown) [Example 178]
49 | < 5 nM |  | CN(C)[C@H]1CCN(c2cccc3c2CCN(C(=O)/C=C/c2c(-n4cnnn4)ccc(Cl)c2F)[C@H]3C(=O)Nc2ccc(C(=O)O)cc2)C1 [Example 208, 4-((R)-2-((E)-3-(3-Chloro-2-fluoro-6-(1H-tetrazol-1-yl)phenyl)acryloyl)-5-((S)-3-(dimethylamino)pyrrolidin-1-yl)-1,2,3,4-tetrahydroisoquinoline-1-carboxamido)benzoic acid, bis-TFA salt]
